# Legend:
# Assay in all cases: SelectScreen, TR FRET
# [1] = molecular target: PLK1 (human) (UniProt P53350)
# [2] = molecular target: GRK4 (human) (UniProt P32298)
# [3] = molecular target: PRKCI (human) (UniProt P41743)
# [4] = molecular target: ADRBK1 (human) (UniProt P25098)
# [5] = molecular target: AKT3 (human) (UniProt Q9Y243)
# [6] = molecular target: HCK (human) (UniProt P08631)
# [7] = molecular target: AKT1 (human) (UniProt P31749)
# [8] = molecular target: GSK3B (human) (UniProt P49841)
# [9] = molecular target: CSNK1A1 (human) (UniProt P48729)
# [10] = molecular target: RPS6KA3 KD1 KD2 (human) (UniProt P51812)
# [11] = molecular target: KDR (human) (UniProt P35968)
# [12] = molecular target: MARK2 (human) (UniProt Q7KZI7)
# [13] = molecular target: NTRK1 (human) (UniProt P04629)
# [14] = molecular target: MAP3K8 (human) (UniProt P41279)
# [15] = molecular target: TSSK1B (human) (UniProt Q9BXA7)
# [16] = molecular target: CAMK4 (human) (UniProt Q16566)
# [17] = molecular target: PASK (human) (UniProt Q96RG2)
# [18] = molecular target: JAK2 JH1 JH2 (human) (UniProt O60674)
# [19] = molecular target: LRRK2 (human) (UniProt Q5S007)
# [20] = molecular target: SGK1 (human) (UniProt O00141)
# [21] = molecular target: PRKG2 (human) (UniProt Q13237)
# [22] = molecular target: ROCK1 (human) (UniProt Q13464)
# [23] = molecular target: ERBB2 (human) (UniProt P04626)
# [24] = molecular target: FLT3 (human) (UniProt P36888)
# [25] = molecular target: ABL1 (human) (UniProt P00519)
# [26] = molecular target: EGFR (human) (UniProt P00533)
# [27] = molecular target: TYK2 JH1 JH2 (human) (UniProt P29597)
# [28] = molecular target: SRC (human) (UniProt P12931)
# Sequence of ERBB2 (human) (P04626 whole entry, looked up): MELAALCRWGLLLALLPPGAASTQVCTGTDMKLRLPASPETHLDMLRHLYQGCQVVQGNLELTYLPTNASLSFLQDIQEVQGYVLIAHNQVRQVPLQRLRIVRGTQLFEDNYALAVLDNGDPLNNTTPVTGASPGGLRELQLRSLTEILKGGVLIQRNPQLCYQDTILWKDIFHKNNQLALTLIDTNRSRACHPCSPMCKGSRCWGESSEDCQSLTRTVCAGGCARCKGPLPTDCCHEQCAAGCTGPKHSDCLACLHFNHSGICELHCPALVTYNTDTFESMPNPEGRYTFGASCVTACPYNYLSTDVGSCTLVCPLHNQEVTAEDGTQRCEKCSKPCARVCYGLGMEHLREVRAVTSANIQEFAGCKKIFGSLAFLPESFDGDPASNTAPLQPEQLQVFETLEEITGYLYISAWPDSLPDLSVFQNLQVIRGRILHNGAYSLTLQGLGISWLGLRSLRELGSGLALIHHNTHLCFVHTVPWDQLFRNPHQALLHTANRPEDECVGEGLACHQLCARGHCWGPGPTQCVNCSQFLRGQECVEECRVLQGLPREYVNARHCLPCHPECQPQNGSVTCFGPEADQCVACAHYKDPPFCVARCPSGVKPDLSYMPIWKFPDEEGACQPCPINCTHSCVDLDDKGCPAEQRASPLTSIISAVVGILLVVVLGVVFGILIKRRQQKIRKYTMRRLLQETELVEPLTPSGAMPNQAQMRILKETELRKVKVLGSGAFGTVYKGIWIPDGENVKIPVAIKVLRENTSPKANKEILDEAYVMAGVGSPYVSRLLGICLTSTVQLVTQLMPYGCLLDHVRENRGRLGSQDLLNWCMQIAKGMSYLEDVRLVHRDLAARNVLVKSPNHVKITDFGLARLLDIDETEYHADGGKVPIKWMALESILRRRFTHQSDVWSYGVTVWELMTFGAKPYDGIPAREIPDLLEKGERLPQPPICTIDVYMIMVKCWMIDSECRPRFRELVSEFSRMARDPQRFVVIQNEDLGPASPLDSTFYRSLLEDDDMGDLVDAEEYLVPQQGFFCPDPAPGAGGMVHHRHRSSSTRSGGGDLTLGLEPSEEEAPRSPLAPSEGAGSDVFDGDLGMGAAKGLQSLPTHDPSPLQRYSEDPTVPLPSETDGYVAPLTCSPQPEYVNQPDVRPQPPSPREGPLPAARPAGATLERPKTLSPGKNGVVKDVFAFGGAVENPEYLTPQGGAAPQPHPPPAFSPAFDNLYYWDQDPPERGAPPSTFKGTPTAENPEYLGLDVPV
# Sequence of TYK2 JH1 JH2 (human) (P29597 whole entry, looked up): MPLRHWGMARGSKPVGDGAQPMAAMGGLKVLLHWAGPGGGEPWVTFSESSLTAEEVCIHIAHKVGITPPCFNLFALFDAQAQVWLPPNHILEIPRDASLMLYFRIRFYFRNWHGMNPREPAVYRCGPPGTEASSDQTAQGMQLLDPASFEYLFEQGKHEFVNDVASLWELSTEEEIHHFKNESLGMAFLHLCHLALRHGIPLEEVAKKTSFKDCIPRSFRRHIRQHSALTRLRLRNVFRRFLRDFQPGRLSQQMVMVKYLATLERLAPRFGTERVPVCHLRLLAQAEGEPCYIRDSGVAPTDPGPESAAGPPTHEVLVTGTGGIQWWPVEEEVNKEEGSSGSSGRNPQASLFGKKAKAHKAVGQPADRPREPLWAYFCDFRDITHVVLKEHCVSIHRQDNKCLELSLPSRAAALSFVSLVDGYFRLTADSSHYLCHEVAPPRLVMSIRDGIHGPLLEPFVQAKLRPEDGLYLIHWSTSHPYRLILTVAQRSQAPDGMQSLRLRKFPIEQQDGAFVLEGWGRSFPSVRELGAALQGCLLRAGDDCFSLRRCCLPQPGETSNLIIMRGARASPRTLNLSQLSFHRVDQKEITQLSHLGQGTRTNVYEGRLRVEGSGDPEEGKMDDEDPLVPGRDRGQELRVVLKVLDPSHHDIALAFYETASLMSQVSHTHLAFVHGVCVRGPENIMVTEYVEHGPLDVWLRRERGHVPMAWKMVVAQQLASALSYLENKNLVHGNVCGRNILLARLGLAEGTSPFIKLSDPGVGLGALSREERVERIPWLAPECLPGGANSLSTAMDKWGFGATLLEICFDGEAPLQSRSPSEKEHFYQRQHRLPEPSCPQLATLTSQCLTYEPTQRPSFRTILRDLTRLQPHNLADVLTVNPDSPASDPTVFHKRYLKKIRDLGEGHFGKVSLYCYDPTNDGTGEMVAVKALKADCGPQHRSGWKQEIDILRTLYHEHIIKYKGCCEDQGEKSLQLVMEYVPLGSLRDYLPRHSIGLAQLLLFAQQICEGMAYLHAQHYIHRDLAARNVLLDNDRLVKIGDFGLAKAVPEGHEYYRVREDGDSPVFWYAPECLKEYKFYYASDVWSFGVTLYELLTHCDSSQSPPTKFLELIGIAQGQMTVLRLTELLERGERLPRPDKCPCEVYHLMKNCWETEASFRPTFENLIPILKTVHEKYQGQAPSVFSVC
# Sequence of TSSK1B (human) (Q9BXA7 whole entry, looked up): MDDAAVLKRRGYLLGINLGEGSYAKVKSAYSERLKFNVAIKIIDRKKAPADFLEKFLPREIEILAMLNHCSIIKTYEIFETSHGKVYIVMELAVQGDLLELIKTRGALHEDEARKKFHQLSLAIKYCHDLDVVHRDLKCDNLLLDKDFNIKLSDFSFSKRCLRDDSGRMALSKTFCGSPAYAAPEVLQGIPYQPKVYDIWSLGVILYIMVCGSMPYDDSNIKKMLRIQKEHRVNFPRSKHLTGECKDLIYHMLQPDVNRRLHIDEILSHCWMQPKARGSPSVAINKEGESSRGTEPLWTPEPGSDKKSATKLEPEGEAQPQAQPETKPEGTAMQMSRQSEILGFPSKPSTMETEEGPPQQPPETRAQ
# Sequence of CSNK1A1 (human) (P48729 whole entry, looked up): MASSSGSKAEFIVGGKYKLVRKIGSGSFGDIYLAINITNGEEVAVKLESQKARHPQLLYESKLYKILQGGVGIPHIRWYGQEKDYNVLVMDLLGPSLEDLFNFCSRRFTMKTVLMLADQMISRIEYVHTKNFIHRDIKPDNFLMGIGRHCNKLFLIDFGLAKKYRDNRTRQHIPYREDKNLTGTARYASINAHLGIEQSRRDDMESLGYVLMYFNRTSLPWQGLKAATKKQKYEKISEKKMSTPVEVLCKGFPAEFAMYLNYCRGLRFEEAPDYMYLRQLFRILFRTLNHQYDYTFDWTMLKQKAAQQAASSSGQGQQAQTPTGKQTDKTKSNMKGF
# Sequence of SGK1 (human) (O00141 whole entry, looked up): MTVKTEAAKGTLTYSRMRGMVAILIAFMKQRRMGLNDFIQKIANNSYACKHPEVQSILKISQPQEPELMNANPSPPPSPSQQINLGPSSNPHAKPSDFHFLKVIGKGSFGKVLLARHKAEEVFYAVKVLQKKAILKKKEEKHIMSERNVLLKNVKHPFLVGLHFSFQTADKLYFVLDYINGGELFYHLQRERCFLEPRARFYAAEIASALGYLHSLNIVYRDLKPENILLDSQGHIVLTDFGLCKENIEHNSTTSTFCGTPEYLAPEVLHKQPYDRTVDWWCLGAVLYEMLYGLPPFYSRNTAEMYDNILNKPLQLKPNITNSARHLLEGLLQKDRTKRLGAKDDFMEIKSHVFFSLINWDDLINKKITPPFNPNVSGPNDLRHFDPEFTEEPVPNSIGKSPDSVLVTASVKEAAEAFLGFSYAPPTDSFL
# Sequence of FLT3 (human) (P36888 whole entry, looked up): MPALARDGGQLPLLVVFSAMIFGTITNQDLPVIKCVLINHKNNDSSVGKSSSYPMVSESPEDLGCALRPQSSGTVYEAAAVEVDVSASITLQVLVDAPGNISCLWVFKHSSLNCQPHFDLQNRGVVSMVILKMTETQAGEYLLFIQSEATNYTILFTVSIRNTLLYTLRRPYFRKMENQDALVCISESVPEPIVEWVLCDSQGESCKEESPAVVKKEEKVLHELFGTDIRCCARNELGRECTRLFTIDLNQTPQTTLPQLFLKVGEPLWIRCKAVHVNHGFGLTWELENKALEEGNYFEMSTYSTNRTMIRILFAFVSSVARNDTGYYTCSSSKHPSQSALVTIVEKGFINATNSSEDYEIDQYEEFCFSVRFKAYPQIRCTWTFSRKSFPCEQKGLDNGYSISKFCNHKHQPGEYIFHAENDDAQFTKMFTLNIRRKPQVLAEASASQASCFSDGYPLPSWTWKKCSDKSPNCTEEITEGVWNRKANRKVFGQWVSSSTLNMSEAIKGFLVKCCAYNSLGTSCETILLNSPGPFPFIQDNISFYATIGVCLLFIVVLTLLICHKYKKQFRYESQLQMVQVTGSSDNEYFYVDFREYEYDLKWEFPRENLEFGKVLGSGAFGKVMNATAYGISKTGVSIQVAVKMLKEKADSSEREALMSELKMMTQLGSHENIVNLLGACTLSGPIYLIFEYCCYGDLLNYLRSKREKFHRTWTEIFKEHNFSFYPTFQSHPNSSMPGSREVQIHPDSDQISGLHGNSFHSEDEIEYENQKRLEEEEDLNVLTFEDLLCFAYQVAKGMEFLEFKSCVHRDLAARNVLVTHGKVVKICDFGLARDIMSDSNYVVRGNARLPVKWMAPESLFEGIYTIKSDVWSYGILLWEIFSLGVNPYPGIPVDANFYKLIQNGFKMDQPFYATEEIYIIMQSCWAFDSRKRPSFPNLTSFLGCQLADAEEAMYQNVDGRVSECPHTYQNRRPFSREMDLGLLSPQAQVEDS
# Sequence of AKT3 (human) (Q9Y243 whole entry, looked up): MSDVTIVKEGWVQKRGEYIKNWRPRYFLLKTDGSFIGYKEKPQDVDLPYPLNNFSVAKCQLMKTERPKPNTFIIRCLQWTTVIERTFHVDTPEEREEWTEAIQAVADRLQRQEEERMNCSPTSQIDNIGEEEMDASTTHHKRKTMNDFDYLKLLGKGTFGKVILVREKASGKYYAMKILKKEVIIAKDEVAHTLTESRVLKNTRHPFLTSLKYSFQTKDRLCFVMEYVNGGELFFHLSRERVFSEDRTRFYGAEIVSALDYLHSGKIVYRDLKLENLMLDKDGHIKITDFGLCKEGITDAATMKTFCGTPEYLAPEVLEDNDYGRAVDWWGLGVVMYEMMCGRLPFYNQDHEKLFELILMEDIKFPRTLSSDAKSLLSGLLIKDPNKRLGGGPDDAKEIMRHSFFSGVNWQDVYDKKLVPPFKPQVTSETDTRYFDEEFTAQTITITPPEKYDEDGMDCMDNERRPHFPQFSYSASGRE
compound,measurement,setting,value
Cn1cc(-c2cnc3ccc4ccc(CC(=O)NCc5ccccn5)cc4c(=O)c3c2)cn1,inhibition,[1]; compound 0.1 µM,8.9%
same,inhibition,[1]; compound 1.0 µM,11.2%
same,inhibition,[1]; compound 10.0 µM,10%
same,inhibition,[2]; compound 0.1 µM,12.9%
same,inhibition,[2]; compound 1.0 µM,11.9%
same,inhibition,[2]; compound 10.0 µM,37.1%
same,inhibition,[3]; compound 0.1 µM,10.5%
same,inhibition,[3]; compound 1.0 µM,10.2%
same,inhibition,[3]; compound 10.0 µM,8.8%
same,inhibition,[4]; compound 0.1 µM,9.4%
same,inhibition,[4]; compound 1.0 µM,8.9%
same,inhibition,[4]; compound 10.0 µM,10.4%
same,inhibition,[5]; compound 0.1 µM,11.3%
same,inhibition,[5]; compound 1.0 µM,10.6%
same,inhibition,[5]; compound 10.0 µM,14.6%
same,inhibition,[6]; compound 0.1 µM,16.7%
same,inhibition,[6]; compound 1.0 µM,19.1%
same,inhibition,[6]; compound 10.0 µM,51.8%
same,inhibition,[7]; compound 0.1 µM,17.2%
same,inhibition,[7]; compound 1.0 µM,5.5%
same,inhibition,[7]; compound 10.0 µM,9.1%
same,inhibition,[8]; compound 0.1 µM,7.3%
same,inhibition,[8]; compound 1.0 µM,8.1%
same,inhibition,[8]; compound 10.0 µM,64%
same,inhibition,[9]; compound 0.1 µM,5.1%
same,inhibition,[9]; compound 1.0 µM,4.8%
same,inhibition,[9]; compound 10.0 µM,13.3%
same,inhibition,[10]; compound 0.1 µM,6.4%
same,inhibition,[10]; compound 1.0 µM,7.8%
same,inhibition,[10]; compound 10.0 µM,18.9%
same,inhibition,[11]; compound 0.1 µM,20%
same,inhibition,[11]; compound 1.0 µM,54.7%
same,inhibition,[11]; compound 10.0 µM,93.9%
same,inhibition,[12]; compound 0.1 µM,12.1%
same,inhibition,[12]; compound 1.0 µM,14.2%
same,inhibition,[12]; compound 10.0 µM,19.7%
same,inhibition,[13]; compound 0.1 µM,18.9%
same,inhibition,[13]; compound 1.0 µM,37.2%
same,inhibition,[13]; compound 10.0 µM,68.9%
same,inhibition,[14]; compound 0.1 µM,28%
same,inhibition,[14]; compound 1.0 µM,23.4%
same,inhibition,[14]; compound 10.0 µM,12.9%
same,inhibition,[15]; compound 0.1 µM,15.5%
same,inhibition,[15]; compound 1.0 µM,11.4%
same,inhibition,[15]; compound 10.0 µM,24.9%
same,inhibition,[16]; compound 0.1 µM,13.6%
same,inhibition,[16]; compound 1.0 µM,10.4%
same,inhibition,[16]; compound 10.0 µM,0.8%
same,inhibition,[17]; compound 0.1 µM,7.5%
same,inhibition,[17]; compound 1.0 µM,5.9%
same,inhibition,[17]; compound 10.0 µM,11.1%
same,inhibition,[18]; compound 0.1 µM,4.4%
same,inhibition,[18]; compound 1.0 µM,12.5%
same,inhibition,[18]; compound 10.0 µM,41%
same,inhibition,[19]; compound 0.1 µM,19.9%
same,inhibition,[19]; compound 1.0 µM,25.4%
same,inhibition,[19]; compound 10.0 µM,54.3%
same,inhibition,[20]; compound 0.1 µM,10.9%
same,inhibition,[20]; compound 1.0 µM,17.4%
same,inhibition,[20]; compound 10.0 µM,49.8%
same,inhibition,[21]; compound 0.1 µM,12.8%
same,inhibition,[21]; compound 1.0 µM,14.8%
same,inhibition,[21]; compound 10.0 µM,53.5%
same,inhibition,[22]; compound 0.1 µM,0%
same,inhibition,[22]; compound 1.0 µM,2.5%
same,inhibition,[22]; compound 10.0 µM,10.9%
same,inhibition,[23]; compound 0.1 µM,-4.3%
same,inhibition,[23]; compound 1.0 µM,2.2%
same,inhibition,[23]; compound 10.0 µM,-10.5%
same,inhibition,[24]; compound 0.1 µM,24.6%
same,inhibition,[24]; compound 1.0 µM,59.7%
same,inhibition,[24]; compound 10.0 µM,80%
same,inhibition,[25]; compound 0.1 µM,19.9%
same,inhibition,[25]; compound 1.0 µM,14.1%
same,inhibition,[25]; compound 10.0 µM,81.7%
same,inhibition,[26]; compound 0.1 µM,0.5%
same,inhibition,[26]; compound 1.0 µM,0.6%
same,inhibition,[26]; compound 10.0 µM,7.1%
same,inhibition,[27]; compound 0.1 µM,5.1%
same,inhibition,[27]; compound 1.0 µM,8%
same,inhibition,[27]; compound 10.0 µM,23.7%
same,inhibition,[28]; compound 0.1 µM,3.7%
same,inhibition,[28]; compound 1.0 µM,7.4%
same,inhibition,[28]; compound 10.0 µM,15%

# From the kinase profiling compilation of Christmann-Franck et al. (2016)
